{"source": "ChEMBL document CHEMBL1201862", "about": "“PubChem BioAssay data set” (2004)", "key": {"[1]": {"test": "HepG2 cell cytotoxicity, dose response, cytotoxicity control for Shn3 inhibitor project, CellTiter-Glo, cherry-picked (AID 624134)", "type": "functional, cell-based"}, "[2]": {"target": "Protein Wnt-3a (Mus musculus, UniProt P27467)", "sequence (P27467 whole entry)": "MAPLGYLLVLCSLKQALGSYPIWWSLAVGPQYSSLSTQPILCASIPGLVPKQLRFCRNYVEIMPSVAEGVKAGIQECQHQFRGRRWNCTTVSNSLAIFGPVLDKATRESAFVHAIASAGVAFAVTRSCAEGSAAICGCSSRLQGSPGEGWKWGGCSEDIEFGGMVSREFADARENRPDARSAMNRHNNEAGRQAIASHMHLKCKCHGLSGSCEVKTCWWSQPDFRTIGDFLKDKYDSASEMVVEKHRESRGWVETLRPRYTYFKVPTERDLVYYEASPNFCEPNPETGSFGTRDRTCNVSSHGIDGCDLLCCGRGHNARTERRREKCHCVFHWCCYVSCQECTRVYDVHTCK", "test": "Wnt3a-driven reporter signaling inhibition, dose response, selectivity assay for Gli-SUFU antagonist project, Wnt-LIGHT cells, luminescence (AID 651570);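 further: Wnt-LIGHT reporter cells stimulated with conditioned medium from Wnt3a-producing cells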", "type": "functional", "settings": "read-out: IC50_Mean"}, "[3]": {"test": "Shn3 3'UTR reporter inhibitors, dose response, cell-based, Clone20 osteoblasts, firefly luciferase, cherry-picked (AID 624132)", "type": "functional"}, "[4]": {"test": "control 3'UTR Renilla luciferase suppression, dose response, counter-screen for Shn3 inhibitor project, cell-based, Clone20-Shn3RL, cherry-picked (AID 624133)", "type": "functional"}, "[5]": {"target": "T1, Low molecular weight phosphotyrosine protein phosphatase (Homo sapiens, UniProt P24666)", "T1 sequence (P24666 whole entry)": "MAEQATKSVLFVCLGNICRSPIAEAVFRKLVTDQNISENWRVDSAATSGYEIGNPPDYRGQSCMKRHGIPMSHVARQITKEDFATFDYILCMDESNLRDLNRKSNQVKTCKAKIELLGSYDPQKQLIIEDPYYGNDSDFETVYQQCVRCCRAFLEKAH", "type": "functional", "settings": "read-out: IC50_Mean"}, "[6]": {"target": "T1, Low molecular weight phosphotyrosine protein phosphatase", "type": "functional", "settings": "read-out: IC50_Mean", "remark": "listed apart in the source"}, "[7]": {"target": "T2, ATP-dependent translocase ABCB1 (Homo sapiens, UniProt P08183)", "T2 sequence (P08183 whole entry)": "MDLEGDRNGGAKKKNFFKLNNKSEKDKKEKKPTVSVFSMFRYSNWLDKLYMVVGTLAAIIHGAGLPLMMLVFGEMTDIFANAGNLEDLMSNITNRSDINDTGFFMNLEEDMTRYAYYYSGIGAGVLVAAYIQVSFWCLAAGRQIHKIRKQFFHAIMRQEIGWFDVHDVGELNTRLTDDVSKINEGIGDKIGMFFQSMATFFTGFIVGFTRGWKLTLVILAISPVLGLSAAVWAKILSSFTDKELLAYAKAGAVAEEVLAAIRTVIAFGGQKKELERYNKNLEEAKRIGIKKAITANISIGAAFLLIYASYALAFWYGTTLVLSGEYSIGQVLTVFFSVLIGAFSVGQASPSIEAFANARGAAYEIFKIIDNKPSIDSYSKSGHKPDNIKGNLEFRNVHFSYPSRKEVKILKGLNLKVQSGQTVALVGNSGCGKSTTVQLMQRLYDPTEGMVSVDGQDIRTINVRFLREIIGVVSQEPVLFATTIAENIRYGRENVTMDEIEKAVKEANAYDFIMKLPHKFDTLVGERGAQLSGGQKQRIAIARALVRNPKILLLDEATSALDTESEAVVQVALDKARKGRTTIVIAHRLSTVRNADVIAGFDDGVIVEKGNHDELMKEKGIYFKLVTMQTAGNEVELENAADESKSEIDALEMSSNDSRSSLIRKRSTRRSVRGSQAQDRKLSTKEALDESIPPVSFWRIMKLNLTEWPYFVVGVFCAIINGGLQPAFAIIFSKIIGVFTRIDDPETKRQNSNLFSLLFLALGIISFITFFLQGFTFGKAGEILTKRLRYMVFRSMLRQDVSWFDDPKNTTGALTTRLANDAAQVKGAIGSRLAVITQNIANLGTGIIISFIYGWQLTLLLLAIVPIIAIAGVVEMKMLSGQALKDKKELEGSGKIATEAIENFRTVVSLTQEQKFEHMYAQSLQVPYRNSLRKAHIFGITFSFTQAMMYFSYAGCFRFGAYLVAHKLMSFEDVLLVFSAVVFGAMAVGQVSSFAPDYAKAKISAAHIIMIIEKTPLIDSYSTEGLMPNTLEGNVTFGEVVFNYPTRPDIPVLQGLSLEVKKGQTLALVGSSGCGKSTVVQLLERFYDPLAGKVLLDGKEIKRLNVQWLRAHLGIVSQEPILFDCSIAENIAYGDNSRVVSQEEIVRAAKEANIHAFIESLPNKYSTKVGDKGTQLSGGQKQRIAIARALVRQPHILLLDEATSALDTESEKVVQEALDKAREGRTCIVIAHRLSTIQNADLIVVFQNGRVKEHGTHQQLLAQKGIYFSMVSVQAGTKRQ", "test": "ABCG2 efflux pump inhibitor potency, dose response, Ig-MXP3 cells, JC-1, flow cytometry, set 2 (AID 504566);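 further: flow cytometry median green fluorescence of retained JC-1 dye; potency of efflux pump inhibition measured as rising substrate retention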", "type": "functional", "settings": "read-out: EC50_MICROM_"}, "[8]": {"target": "T2, ATP-dependent translocase ABCB1", "test": "ABCB1 efflux inhibitor potency, dose response, Jurkat-DNR cells, JC-1, flow cytometry, set 2 (AID 504569);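 further: potency of pump inhibitors that raise cellular JC-1 green fluorescence up to the nicardipine level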", "type": "functional", "settings": "read-out: EC50_MICROM_"}, "[9]": {"system": "HEK293", "test": "optical interference in Abeta FP readout, dose response, artefact control for IDE activator project, biochemical, fluorescence polarization (AID 588442)", "type": "functional, cell-based", "settings": "Homo sapiens"}, "[10]": {"test": "HepG2 cell cytotoxicity, dose response, cytotoxicity control for non-replicating M. tuberculosis project (AID 489018)", "type": "functional", "settings": "Mycobacterium tuberculosis"}, "[11]": {"target": "Melanocortin receptor 4 (Homo sapiens, UniProt P32245)", "sequence (P32245 whole entry)": "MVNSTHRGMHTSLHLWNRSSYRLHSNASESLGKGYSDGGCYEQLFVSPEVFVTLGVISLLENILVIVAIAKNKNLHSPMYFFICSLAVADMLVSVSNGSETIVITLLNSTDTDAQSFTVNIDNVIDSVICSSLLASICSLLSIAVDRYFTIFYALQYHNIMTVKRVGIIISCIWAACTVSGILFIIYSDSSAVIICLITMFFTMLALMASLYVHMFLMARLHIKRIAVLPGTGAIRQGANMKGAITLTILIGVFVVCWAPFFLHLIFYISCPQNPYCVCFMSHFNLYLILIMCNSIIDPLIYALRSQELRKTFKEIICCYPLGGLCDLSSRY", "type": "functional, cell-based"}, "[12]": {"target": "T3, Insulin-degrading enzyme (Homo sapiens, UniProt P14735)", "T3 sequence (P14735 whole entry)": "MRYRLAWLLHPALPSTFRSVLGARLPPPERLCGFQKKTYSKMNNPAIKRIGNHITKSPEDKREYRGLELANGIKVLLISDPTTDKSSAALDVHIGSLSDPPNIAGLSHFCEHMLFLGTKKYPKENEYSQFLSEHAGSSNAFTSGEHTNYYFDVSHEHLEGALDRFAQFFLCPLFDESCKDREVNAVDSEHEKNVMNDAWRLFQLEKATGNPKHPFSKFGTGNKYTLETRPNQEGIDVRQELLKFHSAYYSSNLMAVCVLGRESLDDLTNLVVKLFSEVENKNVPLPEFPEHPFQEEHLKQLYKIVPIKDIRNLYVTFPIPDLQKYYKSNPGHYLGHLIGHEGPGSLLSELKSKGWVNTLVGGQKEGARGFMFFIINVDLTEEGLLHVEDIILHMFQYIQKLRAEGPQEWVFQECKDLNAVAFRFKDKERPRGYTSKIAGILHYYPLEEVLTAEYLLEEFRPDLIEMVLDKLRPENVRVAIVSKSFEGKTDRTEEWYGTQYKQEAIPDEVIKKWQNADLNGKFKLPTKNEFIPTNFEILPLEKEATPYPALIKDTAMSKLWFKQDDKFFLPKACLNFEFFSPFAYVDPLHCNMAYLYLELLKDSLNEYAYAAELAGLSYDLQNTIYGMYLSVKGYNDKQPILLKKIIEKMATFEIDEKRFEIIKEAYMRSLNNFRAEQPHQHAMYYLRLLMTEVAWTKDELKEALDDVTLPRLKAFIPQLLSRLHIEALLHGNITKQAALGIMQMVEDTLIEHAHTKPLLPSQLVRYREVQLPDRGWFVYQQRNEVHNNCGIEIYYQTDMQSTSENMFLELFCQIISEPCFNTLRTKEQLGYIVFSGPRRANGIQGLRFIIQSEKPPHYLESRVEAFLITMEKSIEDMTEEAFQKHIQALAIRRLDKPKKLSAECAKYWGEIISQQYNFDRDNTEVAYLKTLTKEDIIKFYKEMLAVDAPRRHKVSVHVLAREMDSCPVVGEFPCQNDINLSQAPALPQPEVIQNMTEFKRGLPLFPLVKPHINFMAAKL", "test": "activators of endogenous IDE in HEK cells, dose response, cell-based, fluorescence polarization (AID 588439)", "type": "functional"}, "[13]": {"test": "THP-1 cell cytotoxicity, dose response, cytotoxicity control for non-replicating M. tuberculosis project (AID 489025)", "type": "functional"}, "[14]": {"target": "T4, X-box-binding protein 1 (Homo sapiens, UniProt P17861)", "T4 sequence (P17861 whole entry)": "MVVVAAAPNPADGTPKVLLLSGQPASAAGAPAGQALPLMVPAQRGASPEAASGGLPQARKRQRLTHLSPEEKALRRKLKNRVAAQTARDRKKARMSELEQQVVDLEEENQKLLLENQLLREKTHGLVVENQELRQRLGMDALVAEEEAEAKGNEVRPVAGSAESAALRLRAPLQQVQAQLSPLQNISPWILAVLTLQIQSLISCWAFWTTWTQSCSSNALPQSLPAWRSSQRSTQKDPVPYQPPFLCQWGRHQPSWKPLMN", "type": "functional, Cricetulus griseus"}, "[15]": {"system": "HEK293", "test": "HEK cell cytotoxicity by LDH release, dose response, cytotoxicity control for IDE activator project, fluorescence, HEK cells (AID 588440);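 further: cytotoxicity by LDH release measuring loss of membrane integrity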", "type": "functional, cell-based", "settings": "Homo sapiens"}, "[16]": {"test": "cells", "type": "functional"}, "[17]": {"target": "T3, Insulin-degrading enzyme", "test": "activators of recombinant IDE enzyme, dose response, counter-screen for IDE activator project, biochemical, fluorescence polarization (AID 588681)"}, "[18]": {"test": "Vero E6 cell cytotoxicity, dose response, cytotoxicity control for non-replicating M. tuberculosis project, secondary assay (AID 492998)", "type": "functional, VeroE6", "settings": "Vero C1008"}, "[19]": {"target": "T5, Corticotropin-releasing factor receptor 2/Corticotropin-releasing factor-binding protein (Homo sapiens, UniProt P24387+Q13324)", "T5 sequence (Q13324 whole entry)": "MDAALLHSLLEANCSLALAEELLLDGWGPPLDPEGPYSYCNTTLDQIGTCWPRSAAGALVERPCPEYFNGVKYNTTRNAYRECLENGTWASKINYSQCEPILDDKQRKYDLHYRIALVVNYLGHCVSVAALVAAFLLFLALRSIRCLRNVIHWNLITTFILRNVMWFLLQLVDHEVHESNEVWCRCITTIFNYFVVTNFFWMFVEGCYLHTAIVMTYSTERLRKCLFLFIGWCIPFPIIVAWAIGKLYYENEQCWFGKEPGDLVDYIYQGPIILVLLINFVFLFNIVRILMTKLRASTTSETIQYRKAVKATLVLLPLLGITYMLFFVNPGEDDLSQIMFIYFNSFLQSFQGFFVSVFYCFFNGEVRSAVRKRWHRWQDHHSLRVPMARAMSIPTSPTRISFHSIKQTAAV", "T5 sequence (P24387 whole entry)": "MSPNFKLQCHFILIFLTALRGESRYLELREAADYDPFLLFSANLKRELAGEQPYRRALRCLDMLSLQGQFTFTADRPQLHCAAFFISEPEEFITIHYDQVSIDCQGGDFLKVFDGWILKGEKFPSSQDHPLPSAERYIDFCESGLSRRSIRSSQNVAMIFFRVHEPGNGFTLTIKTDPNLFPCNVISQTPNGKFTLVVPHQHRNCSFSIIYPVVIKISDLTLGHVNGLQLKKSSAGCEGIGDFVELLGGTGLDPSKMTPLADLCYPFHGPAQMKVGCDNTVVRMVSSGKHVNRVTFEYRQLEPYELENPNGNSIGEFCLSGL", "test": "Dose Response confirmation of uHTS hits for small molecule antagonists of the CRF-binding protein and CRF-R2 receptor complex.", "type": "functional", "settings": "read-out: IC50_Mean"}, "[20]": {"test": "CRF-BP/CRF-R2 complex antagonists, dose response, cell-based, uHTS hits, 384-well (AID 651639)", "type": "functional, Homo sapiens", "settings": "read-out: IC50_Mean"}, "[21]": {"target": "T5, Corticotropin-releasing factor receptor 2/Corticotropin-releasing factor-binding protein", "test": "activators of CRF receptor 2 with binding protein – uHTS hits, confirmation (AID 602473)", "type": "functional", "settings": "read-out: EC50_Mean"}}, "note": "The source made the active and inactive calls."}
{"compound": "C=CCOC(=O)c1[nH]c2c(c1C)C(=O)CC(c1cc(OC)c(OC)c(OC)c1)C2", "note": "(stereo unspecified);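 on Absolute IC50 (XBP1): confirmatory dose-response counter-screen serving a CHOP assay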", "values": [{"measurement": "AC50", "setting": "[1]", "result": "53.5 µM (active)"}, {"measurement": "IC50", "setting": "[2]", "result": "1.89 µM (active)"}, {"measurement": "AC50", "setting": "[3]", "result": "1.83 µM (active)"}, {"measurement": "AC50", "setting": "[4]", "result": "1.28 µM (active)"}]}
{"compound": "COc1ccccc1CNc1nc(NCc2cnc(C)cn2)c2sccc2n1", "values": [{"measurement": "IC50", "setting": "[5]", "result": "5.74 µM (active)"}, {"measurement": "IC50", "setting": "[6]", "result": "4.31 µM (active)"}]}
{"compound": "O=C(C1CCCCC1)N1CCN(c2cc(-c3ccccc3)nc3cc(-c4cccc(Cl)c4)nn23)CC1", "values": [{"measurement": "EC50", "setting": "[7]", "result": "1.75 µM (active)"}, {"measurement": "EC50", "setting": "[8]", "result": "1.71 µM (active)"}]}
{"compound": "O=C1C(=Cc2cn(-c3ccccc3)nc2-c2ccc(OCc3ccccc3F)cc2)SC(=S)N1CCS(=O)(=O)O", "values": [{"measurement": "IC50", "setting": "[5]", "result": "12.2 µM (active)"}, {"measurement": "IC50", "setting": "[6]", "result": "4.12 µM (active)"}]}
{"compound": "Cc1c(CN2CCC(CO)(CCOc3ccccc3)CC2)[nH]c2c(Cl)cccc12", "values": [{"measurement": "EC50", "setting": "[9]", "result": "> 54.7 µM (inactive)"}, {"measurement": "CC50", "setting": "[10]", "result": "14.5 µM (active)"}, {"measurement": "EC50", "setting": "[11]", "result": "> 89.2 µM (inactive)"}, {"measurement": "EC50", "setting": "[12]", "result": "14.3 µM (inactive)"}, {"measurement": "CC50", "setting": "[13]", "result": "12.4 µM (active)"}, {"measurement": "Absolute IC50 (XBP1)", "setting": "[14]", "result": 10, "unit": "µM"}, {"measurement": "IC50", "setting": "[15]", "result": "22.8 µM (inactive)"}, {"measurement": "IC50", "setting": "[16]", "result": "6.5 µM (active)"}, {"measurement": "EC50", "setting": "[17]", "result": "> 54.7 µM (inactive)"}, {"measurement": "CC50", "setting": "[18]", "result": "16.3 µM (active)"}]}
{"compound": "CCCOc1ccc(C(=O)N2CCN(c3ccc(NC(=O)CC)cc3Cl)CC2)cc1", "values": [{"measurement": "IC50", "setting": "[19]", "result": "16 µM (active)"}, {"measurement": "IC50", "setting": "[20]", "result": "16.3 µM (active)"}, {"measurement": "EC50", "setting": "[21]", "result": "> 53 µM (inactive)"}]}
{"compound": "COc1ccc(-c2cc3nc(C)cc(N4CCN(C(=O)c5ccco5)CC4)n3n2)cc1", "values": [{"measurement": "EC50", "setting": "[7]", "result": "1.52 µM (active)"}, {"measurement": "EC50", "setting": "[8]", "result": "4.78 µM (active)"}]}
{"compound": "COc1ccc(CN(C)C(=O)c2cccc(NC(=O)CC3SC(N4CCCCC4)=NC3=O)c2)c(OC)c1", "note": "(stereo unspecified)", "values": [{"measurement": "IC50", "setting": "[2]", "result": "21.7 µM (inactive)"}]}
